The source of these data is patent US20120225093A1, “Abrogating HIV-1 Infection via Drug-Induced Reactivation of Apoptosis” (UNIVERSITY OF MEDICINE AND DENTISTRY OF NEW JERSEY, priority 2010, published 2012).

The subject of one data set is HIV-1 LTR. Description: RNase protection assay of pLTR-FF transcripts (elongation, RNA stability). The format is cell-based. The method, then:
RPA was performed with 10 μg of cytoplasmic RNA and 5 μg of nuclear RNA, using the RPAIII kit from Ambion (Austin, Tex.) according to the manufacturer's instructions. Synthesis of radiolabeled RNA and protection assays were performed as described in Young et al. Mol Cell Biol 2003, 23:6373-6384. To generate antisense RNA probe against the HIV-1 major splice site, firefly luciferase and Renilla luciferase pBSII-KS+HIV (+80-341), pSP-luc and pSP-rluc were linearized with HindIII, XbaI and BsaI, respectively. The resulting probes were 309, 390 and 245 nt long, respectively. […]
Results of the deletion analysis implied that sensitivity to the drugs is conferred by the promoter or another feature in the HIV-1 LTR. […] Nuclear and cytoplasmic RNA was analyzed in RNase protection assays using a probe complementary to the promoter-proximal region of HIV transcripts (FIG. 6A). […]
To examine the possibility that the drugs decrease the stability of RNA transcribed from the HIV promoter, cells transfected with pLTR-FF were incubated in the presence or absence of CPX. Actinomycin D was added to some cultures 12 hr later to block further transcription, and FF RNA was monitored by RPA at intervals thereafter (FIG. 6D, top panel). FF RNA levels were quantified and normalized to the levels at 12 hr (FIG. 6D, bottom panel). […]

The subject of a further data set is H9-HIV cells. The data set is described as follows: TUNEL DNA fragmentation in H9-HIV cells. Format: cell-based. To be noted: 24 hr; between 10 and 20 μM CPX, leveled off at 40 μM. The method, then:
The potential across the mitochondrial membrane of live cells was determined flow-cytometrically with the lipophilic cationic fluorochrome JC-1 (5,5′,6,6′-tetrachloro-1,1′,3,3′-tetraethylbenzimidazolcarbocyanine iodide) immediately after sample harvest (BD™ Mitoscreen Kit, BD Biosciences; San Diego, Calif.). DNA fragmentation was quantified flow-cytometrically, using a TUNEL (terminal deoxynucleotide transferase dUTP nick end-labeling) assay (APO-BRDU™; Phoenix Flow Systems; San Diego, Calif.) and a dual-color assay for annexin V binding and 7-AAD exclusion (Annexin V-PE 7-AAD Apoptosis Detection Kit I™; BD Biosciences Pharmingen, San Jose, Calif.). The apoptotic volume decrease of cells was assessed by the reduction of their diameter (VI-CELL™; Beckman Coulter; Fullerton, Calif.).
The relationship between iron chelation and apoptosis was assessed using the TUNEL assay to measure DNA fragmentation. DEF induces this late apoptotic event in HIV-expressing ACH-2 cells. Similarly, CPX triggered DNA fragmentation in H9-HIV cells in a dose-dependent manner with a steep, almost 10-fold increase in TUNEL-positive cells between 10 and 20 μM CPX that leveled off at 40 μM (FIG. 11C). […]

Another data set deals with IL-10. Description: IL-10 secretion by PBMC cultures (cytometric bead array). Format: cell-based, human. To be noted: CPX added at inoculation or 12 hr later; Phase I. The method, then: Uninfected PBMCs were co-incubated with infected PBMC stock in 24-well microplates at 2 ml/well Medium B, at a 10:1 ratio of uninfected-to-infected cells, and a total cell number of 1×10^6. Cultures were maintained and assayed for 6 consecutive days. CPX or Agent P2 was added at the time of inoculation or 12 hr later. Leaving the cell layer undisturbed, half the medium in each well was replenished every day, with concurrent adjustment of compound concentration. On each day during the 6-day experiments, a set of wells was harvested: the cells were processed for determination of viability and apoptosis, and the cell-free supernatants were stored at −80° C. for p24 and viral RNA measurements. Experiments were performed at least in duplicate and repeated at least twice.
p24 core antigen in the supernatant was quantified by ELISA (Retrotek HIV-1 p24™; ZeptoMetrix Corp.; Buffalo, N.Y.). HIV-1 RNA copy number in the supernatant was determined with a PCR-based and FDA-approved assay (Amplicor HIV-1 Monitor™; Roche Diagnostics Corp.; Indianapolis, Ind.). IFN-γ and IL-10 in the supernatant were determined by cytometric bead array (Human Th1/Th2 Cytokine Kit II™; BD Biosciences Pharmingen, San Jose, Calif.).
To further assess the cellular effects of CPX, the secretion of interferon (IFN)-γ and interleukin (IL)-10 was measured. […]

The conditions of data set [1]: in vivo; cited from earlier work.

Take `Cc1cc(C2CCCCC2)n(O)c(=O)c1` [CPX, 6-cyclohexyl-1-hydroxy-4-methylpyridin-2[1H]-one]: in the data set with HIV-1 LTR (actinomycin D added at 12 hr), the “rate of FF RNA decay” value is listed as “not affected”. Also, the “FF mRNA level at 12 hr post-transfection, less than control” value in the data set on HIV-1 LTR (in the presence of CPX) was approximately 50%. For the same compound, the “increase in TUNEL-positive cells” value with H9-HIV cells was approximately 10 fold. Also, in the data set on IL-10, the “HIV-induced rise of IL-10” value was “abolished the HIV-induced cytokine boost”. Besides, the tolerability result in data set [1] is listed as “well tolerated”.
